This experiment deals with IL-1β release from THP-1 cells. Nature of the experiment: IL-1β release assay in differentiated THP-1 cells stimulated with BzATP (ELISA). Format: cell-based. To be noted: Homo sapiens; for inhibition at 0.3 µM: 0.3 uM compound, BzATP 250 uM, read-out: IL-1β % Inhib. @ 0.3 uM.; for IC50: released IL-1β as in Example 9, four parameter logistic fit, read-out: IL-Iβ IC50. As to the method: THP-1 cells (ATCC Cat #285-IF-100) are plated in 96 well plates at a concentration of 200,000 cells per well and allowed to differentiate in RPMI-1640 media (ATCC Cat #30-2001) containing 10% FBS, 100 IU/mL penicillin, 100 ug/mL streptomycin, 100 ng/mL LPS and 100 ng/mL IFN-γ for 16 hours. Following differentiation, the cells are treated for an additional 2 hours in RPMI-1640 media containing 100 IU/mL penicillin, 100 ug/mL streptomycin and fresh LPS at 100 ng/mL. The cells are then pretreated for 30 minutes with the compound of interest at the appropriate concentration in RPMI media containing 100 IU/mL penicillin, 100 ug/mL streptomycin. Following the pretreatment 2′,3′-O-(4-benzoylbenzoyl)-adenosine 5′-triphosphate (Sigma Aldrich Cat # B6396) is added to a final concentration of 250 uM and the cells are incubated for an additional 45 minutes. 30 uL of cell supernatant is then collected and IL-113 levels determined via ELISA (R&D systems Cat. # HSLB50) according to manufacturer's recommendations using the Tecan Safire plate reader. Background adjusted IL-1β levels of drug treated and non-treated cells are used to calculate the percent inhibition. […]
The compounds set forth in Table 1 were tested for activity in a cellular model as described herein. Specifically, cells were pretreated with differing amounts of the compound under test and released IL-1β determined as in Example 9, above. Measurements were made and IC50 values, presented in Table 2, below, were determined by fitting the data to a four parameter logistic equation using GraphPad Prism software (GraphPad Software, Inc). The equation may be expressed by the following formula: Y=Bottom+(Top−Bottom)/(1+10^((LogEC50−X)*HillSlope)) Where X is the logarithm of concentration, Y is the response and Y starts at Bottom and goes to Top with a sigmoid shape.

From patent US8779144B2, “Bicycloheteroaryl compounds as P2X7 modulators and uses thereof” (Evotec (US) Inc., priority 2006, dated 2014) come the findings set out here.

SMILES strings stand for the structures. A value given as a limit tells only on which side of the number the result lay.

By IC50 is commonly meant the concentration that inhibits the measured activity by half. `O=C(NCCc1ccccc1Cl)c1ncnc2c1CCN(Cc1ccccc1)C2` [Compound 2001]: the inhibition at 0.3 µM lay within 0 to 25% and the IC50 is greater than 1000 nM. For the molecule `O=C(NCC1CCCCC1)c1ncnc2c1CCNC2` [Compound 2002, 5,6,7,8-Tetrahydro-pyrido[3,4-d]pyrimidine-4-carboxylic acid cyclohexylmethyl-amide], the inhibition at 0.3 µM lay in the range of 0 to 25%. As to `O=C(NCCc1ccccc1)c1ncnc2c1CCNC2` [Compound 2003], the inhibition at 0.3 µM is 0 to 25%.

Turning to `O=C(NCC1CCCCC1)c1ncnc2c1CCN(Cc1ccccc1)C2` [Compound 2004], the inhibition at 0.3 µM fell in the range of 0 to 25%. As to `O=C(NCC1CCCCC1)c1ncnc2c1CCN(Cc1cccnc1)C2` [Compound 2006], the inhibition at 0.3 µM was in the range of 0 to 25%. Consider `O=C(NCC1CCCCC1)c1ncnc2c1CCN(Cc1ccncc1)C2` [Compound 2007], for which the inhibition at 0.3 µM lay in the range of 0 to 25%. In the case of `O=C(NCC1CCCCC1)c1ncnc2c1CCN(Cc1ccccc1Cl)C2` [Compound 2008], the inhibition at 0.3 µM lay in the range of 0 to 25%. As to `O=C(NCC1CCCCC1)c1ncnc2c1CCN(Cc1ccc(Cl)cc1)C2` [Compound 2009], the inhibition at 0.3 µM fell in the range of 0 to 25%.

As for `O=C(NCC1CCCCC1)c1ncnc2c1CCN(Cc1ccccn1)C2` [Compound 2010], the inhibition at 0.3 µM fell in the range of 0 to 25%. On the same count and under the same terms, the same measure for `O=C(NCC1CCCCC1)c1ncnc2c1CCN(Cc1cccc(Cl)c1)C2` [Compound 2011]: 0 to 25%; for `COc1ccc(CN2CCc3c(ncnc3C(=O)NCC3CCCCC3)C2)cc1` [Compound 2012]: 0 to 25%. Turning to `Cc1ccc(CN2CCc3c(ncnc3C(=O)NCC3CCCCC3)C2)cc1` [Compound 2013], the inhibition at 0.3 µM fell in the range of 0 to 25%. Turning to `CS(=O)(=O)c1ccc(CN2CCc3c(ncnc3C(=O)NCC3CCCCC3)C2)cc1` [Compound 2014], the inhibition at 0.3 µM was 0 to 25%. The same measure, in the same setting: the same measure for `CC(=O)Nc1ccc(CN2CCc3c(ncnc3C(=O)NCC3CCCCC3)C2)cc1` [Compound 2015]: 0 to 25%; for `O=C(NCC1(O)CCCCCC1)c1ncnc2c1CCN(Cc1ccccc1)C2` [Compound 2016]: 0 to 25%; for `CC1(C)CCCC(O)(CNC(=O)c2ncnc3c2CCN(Cc2ccccc2)C3)C1` (stereo not shown) [Compound 2017]: 0 to 25%. Consider `Cc1ccc(C2(CNC(=O)c3ncnc4c3CCN(Cc3ccccc3)C4)CCCCC2)cc1` [Compound 2018], for which the inhibition at 0.3 µM lay in the range of 0 to 25%. With `O=C(NCC12CC3CC(CC(C3)C1)C2)c1ncnc2c1CCN(Cc1ccccc1Cl)C2` [Compound 2025], the inhibition at 0.3 µM was in the range of 26 to 50%. Consider `O=C(NCC1(O)CCCCCC1)c1cccc2c(=O)n(Cc3ccc(F)cc3)ccc12` [Compound 2031, 2-(4-Fluoro-benzyl)-1-oxo-1,2-dihydro-isoquinoline-5-carboxylic acid (1-hydroxy-cycloheptylmethyl)-amide], for which the inhibition at 0.3 µM is greater than 76% and the IC50 is 42 nM. For the molecule `O=C(NCC1CCCCCC1)c1cccc2c(=O)n(Cc3ccc4c(c3)OCCO4)ccc12` [Compound 2036], the inhibition at 0.3 µM was greater than 76% and the IC50 came out at 11.6 nM. Regarding `O=C(NCC1CCCCCC1)c1cccc2c1CCN(C(CO)CO)C2=O` [Compound 2037], the inhibition at 0.3 µM lay within 51 to 75% and the IC50 was determined as 138 nM. The corresponding values for `CC1(C)OCC(Cn2ccc3c(C(=O)NCC4CCCCCC4)cccc3c2=O)O1` (stereo not shown) [Compound 2038] are 0 to 25% and 606 nM. For `O=C(NCC1CCCCCC1)c1cccc2c(=O)n(CC(O)CO)ccc12` (stereo not shown) [Compound 2039, 2-(2,3-Dihydroxy-propyl)-1-oxo-1,2-dihydro-isoquinoline-5-carboxylic acid cycloheptylmethyl-amide], the inhibition at 0.3 µM fell in the range of 51 to 75% and the IC50 was 257 nM. The corresponding values for `CC1(C)CCCC(O)(CNC(=O)c2cccc3c(=O)n(CC(O)CO)ccc23)C1` (stereo not shown) [Compound 2042] are 51 to 75% and 145 nM. The corresponding values for `COCC(O)Cn1ccc2c(C(=O)NCC3CCCCCC3)cccc2c1=O` (stereo not shown) [Compound 2044] are 0 to 25% and greater than 1000 nM. The like results for `Cn1ccc2c(C(=O)NCC3(O)CCCC(C)(C)C3)cccc2c1=O` (stereo not shown) [Compound 2045] were, in that order, 0 to 25% and greater than 1000 nM. Turning to `COCC(O)Cn1ccc2c(C(=O)NCC3(O)CCCC(C)(C)C3)cccc2c1=O` (stereo not shown) [Compound 2046], the inhibition at 0.3 µM was 0 to 25% and the IC50 is greater than 1000 nM.

As to `CC(C(N)=O)n1ccc2c(C(=O)NCC3CCCCC3)cccc2c1=O` (stereo not shown) [Compound 2049], the inhibition at 0.3 µM is greater than 76% and the IC50 came to 122 nM.

Consider `CC(C(N)=O)n1ccc2c(C(=O)NCC3CCCCCC3)cccc2c1=O` (stereo not shown) [Compound 2050], for which the inhibition at 0.3 µM was 0 to 25% and the IC50 is 654 nM. The like results for `CC1(C)CCCC(O)(CNC(=O)c2cccc3c(=O)n(CCO)ccc23)C1` (stereo not shown) [Compound 2051] were, in that order, 51 to 75% and 256 nM. Turning to `O=C(NCC1CCCCC1)c1cccc2c(=O)n(CCO)ccc12` [Compound 2052], the inhibition at 0.3 µM is 0 to 25% and the IC50 was 694 nM. Turning to `O=C(NCc1ccc(Cl)c(C(F)(F)F)c1)c1cccc2c(=O)n(C(CO)CO)ccc12` [Compound 2053, 2-(2-Hydroxy-1-hydroxymethyl-ethyl)-1-oxo-1,2-dihydro-isoquinoline-5-carboxylic acid 4-chloro-3-trifluoromethyl-benzylamide], the inhibition at 0.3 µM is greater than 76% and the IC50 amounted to 40.4 nM.

For `CC1(C)CC(C)(C)CC(O)(CNC(=O)c2cccc3c(=O)n(C(CO)CO)ccc23)C1` [Compound 2054], the inhibition at 0.3 µM lay within 51 to 75% and the IC50 is 233 nM. With `O=C(NCC1CCCCC1)c1cccc2c(=O)n(C(CO)CO)ccc12` [Compound 2055], the inhibition at 0.3 µM lay within 51 to 75% and the IC50 came out at 269 nM. In the case of `C[C@@H](C(N)=O)n1ccc2c(C(=O)NCC3(O)CCCCCC3)cccc2c1=O` [Compound 2056], the inhibition at 0.3 µM is 26 to 50% and the IC50 turned out to be 506 nM. As to `C[C@H](C(N)=O)n1ccc2c(C(=O)NCC3(O)CCCCCC3)cccc2c1=O` [Compound 2057], the inhibition at 0.3 µM is greater than 76% and the IC50 was 26.1 nM. On to `C[C@H](C(N)=O)n1ccc2c(C(=O)NCc3ccc(Cl)c(C(F)(F)F)c3)cccc2c1=O` [Compound 2058, 2-((R)-1-Carbamoyl-ethyl)-1-oxo-1,2-dihydro-isoquinoline-5-carboxylic acid 4-chloro-3-trifluoromethyl-benzylamide], for which the inhibition at 0.3 µM was greater than 76% and the IC50 was 21 nM. The like results for `C[C@@H](C(N)=O)n1ccc2c(C(=O)NCc3ccc(Cl)c(C(F)(F)F)c3)cccc2c1=O` [Compound 2059, 2-((S)-1-Carbamoyl-ethyl)-1-oxo-1,2-dihydro-isoquinoline-5-carboxylic acid 4-chloro-3-trifluoromethyl-benzylamide] were, in that order, greater than 76% and 77.4 nM. As for `C[C@H](C(N)=O)n1ccc2c(C(=O)NCc3ccc(Cl)c(Cl)c3)cccc2c1=O` [Compound 2060], the inhibition at 0.3 µM is greater than 76% and the IC50 stood at 38.2 nM. The corresponding values for `C[C@@H](C(N)=O)n1ccc2c(C(=O)NCc3ccc(Cl)c(Cl)c3)cccc2c1=O` [Compound 2061] are 51 to 75% and 214 nM. The corresponding values for `C[C@@H](C(N)=O)n1ccc2c(C(=O)NCC34CC5CC(CC(C5)C3)C4)cccc2c1=O` [Compound 2065, 2-((S)-1-Carbamoyl-ethyl)-1-oxo-1,2-dihydro-isoquinoline-5-carboxylic acid (adamantan-1-ylmethyl)-amide] are greater than 76% and 0.44 nM.

In the case of `C[C@H](NC(=O)c1cccc2c(=O)n([C@@H](C)C(N)=O)ccc12)c1ccc(Cl)cc1` [Compound 2066], the inhibition at 0.3 µM is 0 to 25% and the concentration for half-maximal inhibition (IC50) was greater than 1000 nM.

For the molecule `C[C@@H](NC(=O)c1cccc2c(=O)n([C@@H](C)C(N)=O)ccc12)c1ccc(Cl)cc1` [Compound 2067], the inhibition at 0.3 µM is 0 to 25% and the IC50 was greater than 1000 nM.

`C[C@H](CO)n1ccc2c(C(=O)NCc3ccc(C(F)(F)F)cc3)cccc2c1=O` [Compound 2068]: the inhibition at 0.3 µM was 51 to 75% and the IC50 is 212 nM. The like results for `C[C@H](CO)n1ccc2c(C(=O)NCC3CCCCCC3)cccc2c1=O` [Compound 2069, 2-((R)-2-Hydroxy-1-methyl-ethyl)-1-oxo-1,2-dihydro-isoquinoline-5-carboxylic acid cycloheptylmethyl-amide] were, in that order, greater than 76% and 6.91 nM.
